Measured values from patent US20220241229A1, “Methods and Compositions for Altering Senescence Associated Secretory Phenotype” (BUCK INSTITUTE FOR RESEARCH ON AGING, priority 2019, published 2022).
Entries after “also recorded” stand apart in the source; their conditions may differ. Read-outs that look alike come from different tables or passages of the source.

Experiments:
[1] = tested on: senescence-associated secretory phenotype (SASP) genes; assay: qRT-PCR of SASP genes in irradiated IMR-90 fibroblasts; assay type: cell-based; conditions: 10 Gy ionizing radiation; 1 mM for 10 days
Description: For damage-induced senescence, cells were irradiated with doses of either 0 or 10 Gy of ionizing radiation (IR). Cells were concurrently treated with PBS (control) or 1 mM AKG for 10 days, changing media every 2 days. All assays were performed 10 days post irradiation.
RNA quality and quantity were assessed using NanoDrop™ 1000 spectrophotometer measures (Thermo Scientific). Total cDNAs were synthesized from 500 ng of RNA using random primers and iScript RT reagents following the manufacturer's protocol Superscript II (Invitrogen, Carlsbad, USA). Gene expression was measured from cDNA using the Roche Universal Probe Library system (Indianapolis, Ind., USA). All values were normalized to beta-actin.

C57BL6/J mice [2] = conditions: Cohort-1, 2% w/w AKG diet from 18 months of age
Description: (§1) The principle endpoint of health span and lifespan study was natural death or mice found dead at daily inspection or age at euthanasia (for mice deemed unlikely to survive for next 48 hr and are in enormous discomfort). The criteria for euthanasia were based on an independent assessment by a veterinarian, according to AAALAC guidelines and only where the condition of the animal was considered. Severe lethargy, rapid weight loss (over two weeks>20%), severe distended abdomen and body condition score with signs of pain (grimace), inability to move despite the stimuli, severe ulcer or bleeding tumor, sever temperature loss with abnormal breathing rate. Animal found dead or euthanized was necropsied for pathology score. No invasive measurements were performed on this population, n=180 animals (two cohorts of 90 animals). A sacrificed group were purchased at 14 months of age, baselined and grouped the following week. […] Animals were sacrificed and tissues were collected after 3 months of treatment. Food intake and body weight were measured on a biweekly and bimonthly basis for the duration of the study.
(§2) Python Software was used to extract all the health span data and create files compatible with R software for analysis. Data were analyzed using R, GraphPad Prism 7 and OASIS 2 software. Log-rank (Mantel-Cox) tests were used to analyze Kaplan-Meier curves, and a fisher's exact test was performed for maximum lifespan analysis (at 90% survival). […] Two-way analysis of variance (ANOVA) with Bonferroni post hoc correction was used for analysis between morbidity curves. The area under curve (AUC) of […] graphs were measured baselining at 18 months of age. The changes in AUC were used to calculate the percent compression of morbidity.

IMR-90 fibroblasts = assay: Senescence formation in irradiated IMR-90 fibroblasts (SA-β-gal, EdU); assay type: cell-based; conditions: 10 Gy ionizing radiation; 1 mM for 10 days
Description: IMR-90 fetal lung fibroblasts were obtained from ATCC and were cultured at 37° C. in 3% O2 and 5% CO2. Dulbecco's modified Eagle's media (DMEM) supplemented with 10% fetal bovine serum and streptomycin/penicillin were used. Media was changed every 2 days during the experiment. For damage-induced senescence, cells were irradiated with doses of either 0 or 10 Gy of ionizing radiation (IR). Cells were concurrently treated with PBS (control) or 1 mM AKG for 10 days, changing media every 2 days. All assays were performed 10 days post irradiation.
Cells were stained for the senescence-associated 3-gal (SA-3-gal) marker as described. Non-senescent cells (having undergone fewer than 35 population doublings) were made quiescent by washing with PBS and incubating in DMEM containing 0.2% serum for 4 day. Cultures that had >80% SA-3-gal positive cells and ≤4% EdU positive cells were considered senescent.

[3] = Body weight and food consumption; assay type: in vivo, mice
Description: as §1
Metabolism was measured applying indirect calorimetry. Promethion metabolic cage system-Sable Systems International was used.

[4] = tested on: inflammatory cytokines and chemokines; assay: Inflammatory cytokines and chemokines in serum (multiplex bead array); assay type: in vivo, mice; conditions: for Levels of 30 inflammatory cytokines and chemokines: aged female mice (29 month old) vs. aged control and young
Description: The samples were measured for soluble cytokines and chemokines in serum using multiplex bead array technology (MD31).

C57BL6/J mice [5] = conditions: for Incidence and severity of aging phenotypes / morbidity (total frailty score): female and male, Cohort-1, 2% w/w diet from 18 months; for Age-related changes in female coat color / hair discoloration: female mice; for Severity of individual frailty phenotypes: grimace, poor coat condition, gait disorder
Description: For the subjective properties of the assessments, all measurements were completely blinded. These assessments indicate age-associated deterioration of health and include evaluation of the animal musculoskeletal system, the vestibulocochlear/auditory systems, the ocular and nasal systems, the digestive system, the urogenital system, the respiratory system, signs of discomfort, body weight and body surface temperature. 0 is assigned if no sign of frailty is observed and the animal is healthy for that phenotype. A moderate phenotype and a severe phenotype is scored 0.5 and 1 respectively. Loss of temperature and weight were scored using standard deviation for the study (Table 2). All the phenotypes were scored as described before by Whitehead, J. C., et al., except for temperature and weight. Temperature and weights scoring: Briefly, for weight and temperature, the new scaling scores were used; Average and standard deviations (STDEV) were calculated sex specifically using our own baseline data sets (data collected before the start of the treatment mice at 18th month age). A decrease in temperature or weight (FIG. 3B, and FIG. 3D) within one STDEV is scored as a (0), a decrease bigger than one STDEV but smaller than 2 STDEV will be scored as a (0.5) and any decrease more than 2 STDEV is scored as a (1).
as §2
In order to assess healthspan, measurements were applied that are based on a clinically relevant frailty index. The frailty index (FI) consists of 31 phenotypes that are indicators of age-associated health deterioration, with each phenotype scored on a 0, 0.5 or 1 scale, based on its severity. Body weight and surface temperature were collected and converted to the same scoring scales (Table 2). All scorings were conducted in a blinded manner.
The 31-metrics share many characteristics of the human frailty indices and has been reported to progress similarly with aging in mice and humans. Measurements were repeated approximately every eight weeks, providing us with eight and seven sets of data respectively for male and female groups. To establish a baseline clinical assessment, a dataset was collected right before the start of the treatment at 18th months (FIG. 4A-FIG. 4D).
Since the age for onset of age-related phenotypes can be quite heterogeneous in mammals, frailty datasets were plotted not only as a function of chronological time, but also in proportion to the lifespan of each mouse by binning scores within ten percentile (e.g. scores collected between 60% and 70% of the animals' lifespans were binned and plotted at 65%), (FIG. 9A-FIG. 9B). This further aligns assessments with respect to the biologic age of the animal.

C57BL6/J mice [6] = conditions: treated group vs. control
Description: Metabolism was measured applying indirect calorimetry. Promethion metabolic cage system-Sable Systems International was used. The system is equipped with GA-3 small mammal gas analyzers for measurements of O2 (consumption) and CO2 (production). Energy expenditure, food intake, water consumption, body weight, physical activity and volunteer exercise were simultaneously recorded over 4 consecutive days (96 hours). Mice were housed individually in metabolic cages and accustomed to their environment a day before the start of recording. Data were analyzed using Sable System Expedata-P Data Analysis Software. Subsequently, CalR software, a free web tool was used for analysis of experiments using indirect calorimetry, to analyze the raw data, generate some plots and run statistical analysis.

[7] = aged mice (29 months old) vs. young and aged control

Structure (SMILES): O=C(O)CCC(=O)C(=O)O [AKG, 2-oxopentanedioic acid]
- Range of inflammatory cytokines (proinflammatory SASP) [1]: lowers the proinflammatory SASP
- Age (days) at 100% (C57BL6/J mice [2]; female): 1116 days
- Age (days) at 100% (C57BL6/J mice [2]; male & female): 1173 days
- Age (days) at 100% (C57BL6/J mice [2]; male): 1173 days
- Senescence formation / senescence growth arrest (IMR-90 fibroblasts): without preventing the senescence growth arrest
- Body weight preservation (age-related weight loss) ([3]; male mice, second cohort, P value<0.001): preserves body weight; also recorded: better body weight preservation
- Food consumption ([3]; measured for 3 consecutive days at 19, 23 and 28 months, AKG fed vs. control): no significance change
- Levels of 30 inflammatory cytokines and chemokines [4]: general trend of reduction
- Level of IL-3 [4, 7]: do not show an increase
- Level of IL-7 [4, 7]: do not show an increase
- Level of MIP-1β [4, 7]: do not show an increase
- Level of TNFα [4, 7]: do not show an increase
- Compression of morbidity (proportion of life frail) (C57BL6/J mice [5]; both sexes, total frailty scores vs. percentage of lifespan): compresses the morbidity risk into fewer days of life; also recorded: decreases the proportion of life in which the animal is frail
- Incidence and severity of aging phenotypes / morbidity (total frailty score) (C57BL6/J mice [5]): extends healthspan and alleviates age-associated frailty
- Age-related changes in female coat color / hair discoloration (C57BL6/J mice [5]): prevents age-associated hair discoloration

Structure (SMILES): O=C([O-])CCC(=O)C(=O)[O-].[Ca+2] [CaAKG, Calcium alpha-ketoglutarate]
- Level of carbon dioxide production (C57BL6/J mice [6]): significantly lower
- Level of energy expenditure (C57BL6/J mice [6]): significantly lower
- Level of oxygen consumption (C57BL6/J mice [6]): significantly lower
- Levels of 30 inflammatory cytokines and chemokines [4]: largely refractory to these changes
- Level of IL-3 [4, 7]: significant changes
- Incidence and severity of aging phenotypes / morbidity (total frailty score) (C57BL6/J mice [5]): decreases incidence and severity of different aging phenotypes and postpones morbidity
- Age-related changes in female coat color / hair discoloration (C57BL6/J mice [5]): protection from age-related changes in female coat color was particularly prominent
- Total frailty score, health improvement vs. control (C57BL6/J mice [5]; female, P<0.001, P<0.05): significant improvements after 9 months of treatment and again at 11 months post treatment
- Gait (C57BL6/J mice [5]; females and males close to median life): Gait improvement
- Severity of individual frailty phenotypes (C57BL6/J mice [5]; females: piloerection, alopecia, loss of fur color, grip strength loss, rectal prolapse, body weight loss): significantly decreased
- Total frailty score, health improvement vs. control (C57BL6/J mice [5]; male, persisted until last measurement at 33 months of age, P<0.01, P<0.05): significant health improvement after 11 months
- Severity of individual frailty phenotypes (C57BL6/J mice [5]; males: grip strength loss, vestibular disturbance, loss of menace reflex, hearing loss, eye discharge, poor body condition, tail stiffening, abnormal breathing rate): significantly decreased the severity of multiple aging phenotypes
